Measured values published in patent US20260001914A1, “MACROCYCLIC PEPTIDES TARGETING KRAS” (Merck Sharp & Dohme LLC, priority 2022, published 2026).
*1 amine or outer side, *2 acyl side, *3 side chain or, on linkers, in order; H or OH if unused. Where a SMILES comes first, the peptide text is derived from it. Bridges are numbered along the chain shown (N, C = ends). [ ]: non-standard residue; d: D form. cBu(1-CO,cis-3-CH2NH) = O=C([C@H]1C[C@@H](CN[*:1])C1)[*:2]; NMeNva(5-imidazol-1-yl) = CN[C@@H](CCCn1ccnc1)C(=O)O; Phe(4-guanidino) = N=C(N)Nc1ccc(C[C@H](N)C(=O)O)cc1; X18 = CNC(=N)N(C)c1ccc(C[C@H](N[*:1])C(=O)[*:2])cc1; X19 = C[C@H](c1ccccc1)[C@@H](C(=O)[*:2])N(C)[*:1]; X60 = O=C([C@H](Cc1ccc(NC2=NCCN2)cc1)N[*:1])[*:2]; X55 = O=C([C@H](Cc1coc(-c2ccccc2)n1)N[*:1])[*:2]; Ala(pyrimidin-5-yl) = N[C@@H](Cc1cncnc1)C(=O)O; NMe3Pal(6-Me) = CN[C@@H](Cc1ccc(C)nc1)C(=O)O; NMePhe(4-Me) = CN[C@@H](Cc1ccc(C)cc1)C(=O)O; X11 = CC(C)(F)CC[C@H](N[*:1])C(=O)[*:2]; 1Nal = N[C@@H](Cc1cccc2ccccc12)C(=O)O; NHCH2CH2SCH2CO = O=C(CSCCN[*:1])[*:2]; X21 = O=C([C@@H]1C[C@H]1CN[*:1])[*:2]; Phe(2-F) = N[C@@H](Cc1ccccc1F)C(=O)O; NMe3Pal = CN[C@@H](Cc1cccnc1)C(=O)O; NMeY = CN[C@@H](Cc1ccc(O)cc1)C(=O)O; X1 = O=C(C12CC(CN[*:1])(C1)C2)[*:2]; X17 = O=C([C@H](CCCCF)N[*:1])[*:2]; NMeOrn(Me) = CNCCC[C@H](NC)C(=O)O; NMeR = CN[C@@H](CCCNC(=N)N)C(=O)O; Ala(cPr) = N[C@@H](CC1CC1)C(=O)O; NMeF = CN[C@@H](Cc1ccccc1)C(=O)O; PhLac = O=C(O)[C@@H](O)Cc1ccccc1; X4 = O=C([C@H](CCCF)N[*:1])[*:2]; 3Pal = N[C@@H](Cc1cccnc1)C(=O)O; 4Pal = N[C@@H](Cc1ccncc1)C(=O)O; Gly(N(CH2)3NH2) = NCCCNCC(=O)O; Ahp(2) = CCCCC[C@H](N)C(=O)O; Cba = N[C@@H](CC1CCC1)C(=O)O; hLeu = CC(C)CC[C@H](N)C(=O)O; αMeC = C[C@](N)(CS)C(=O)O; NMeA = CN[C@@H](C)C(=O)O; Nle = CCCC[C@H](N)C(=O)O; Nva = CCC[C@H](N)C(=O)O

Molecular target: KRAS-G12D protein (Homo sapiens, UniProt P01116, G12D)
Sequence (P01116 1-188 isoform P01116-2 G12D): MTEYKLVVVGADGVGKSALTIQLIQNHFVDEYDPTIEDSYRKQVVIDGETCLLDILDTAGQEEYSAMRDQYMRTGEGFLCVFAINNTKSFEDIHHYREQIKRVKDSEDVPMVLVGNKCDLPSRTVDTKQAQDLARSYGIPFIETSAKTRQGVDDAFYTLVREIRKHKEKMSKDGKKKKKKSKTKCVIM
Experiment: SOS-mediated nucleotide exchange assay (BODIPY-GDP / Tb-streptavidin TR-FRET)
Assay type: biochemical

In order of rising EC50:
1. CCCCC[C@@H]1NC(=O)[C@H](Cc2ccc(OC)cc2)NC(=O)[C@H](CC2CCC2)NC(=O)[C@H](Cc2ccc(N(C)C(=N)NC)cc2)NC(=O)[C@H](CCCNC(=N)N)NC(=O)[C@H](Cc2ccccc2)NC(=O)CSC[C@@](C)(C(N)=O)NC(=O)[C@H](Cc2ccccc2)N(C)C1=O [compound 382, cyclo(F-R-Phe4GnMeMe-cBuA-TyrOMe-Ahp-NMeF-aMeCl-ClAc)]  1.6 nM
2. C[C@H]1C(=O)N[C@@H](Cc2cncnc2)C(=O)N[C@@H](CC2CC2)C(=O)N[C@@H](Cc2ccccc2F)C(=O)N[C@@H](CCC(C)(C)F)C(=O)N(C)[C@@H](Cc2ccccc2)C(=O)NCC23CC(C2)(C3)C(=O)O[C@@H](Cc2ccccc2)C(=O)N1C [compound 277, cyclo(FLac-NMeA-PyrimAla-cPrA-Phe2F-hL3F-NMeF-amBCP)] (cyclo([Ala(cPr)][Phe(2-F)][X11][NMeF][X1][PhLac][NMeA][Ala(pyrimidin-5-yl)]))  2 nM
3. CCCC[C@@H]1NC(=O)[C@H](Cc2ccccc2F)NC(=O)[C@H](CCCCF)NC(=O)[C@H](Cc2cncnc2)NC(=O)[C@H](C)N(C)C(=O)[C@H](Cc2ccccc2)OC(=O)C23CC(CNC(=O)[C@H](Cc4ccccc4)N(C)C1=O)(C2)C3 [compound 130, cyclo(FLac-NMeA-PyrimAla-NleF-Phe2F-Nle-NMeF-amBCP)] (cyclo([NMeA][Ala(pyrimidin-5-yl)][X17][Phe(2-F)][Nle][NMeF][X1][PhLac]))  2.43 nM
4. CCCC[C@@H]1NC(=O)[C@H](Cc2cnc(C#N)nc2)NC(=O)[C@H](C)N(C)C(=O)[C@H](Cc2ccccc2)OC(=O)C23CC(CNC(=O)[C@H](Cc4ccccc4)N(C)C(=O)[C@H](CCCC)NC(=O)[C@H](Cc4ccccc4F)NC1=O)(C2)C3 (single isomer, unassigned) [compound 315, cyclo(FLac-NMeA-AlaPyrim4CN-Nle-Phe2F-Nle-NMeF-amBCP)]  5.28 nM
5. CC(C)CC[C@@H]1NC(=O)[C@H](Cc2ccccc2F)NC(=O)[C@H](CCCF)NC(=O)[C@H](Cc2cncnc2)NC(=O)[C@H](C)N(C)C(=O)[C@H](Cc2ccccc2)OC(=O)C23CC(CNC(=O)[C@H](Cc4ccccc4)N(C)C1=O)(C2)C3 [compound 133, cyclo(FLac-NMeA-PyrimAla-NvaF-Phe2F-hL-NMeF-amBCP)] (cyclo([NMeA][Ala(pyrimidin-5-yl)][X4][Phe(2-F)][hLeu][NMeF][X1][PhLac]))  7.79 nM
6. CCCC[C@@H]1NC(=O)[C@H](Cc2cncnc2)NC(=O)[C@H](C)N(C)C(=O)[C@H](Cc2ccccc2)OC(=O)C23CC(CNC(=O)[C@H](Cc4ccc(OC)cc4)N(C)C(=O)[C@H](CCCC)NC(=O)[C@H](Cc4ccccc4F)NC1=O)(C2)C3 [compound 175, cyclo(FLac-NMeA-PyrimAla-Nle-Phe2F-Nle-NMeYOMe-amBCP)] (cyclo([NMeA][Ala(pyrimidin-5-yl)][Nle][Phe(2-F)][Nle][NMeY](Me)[X1][PhLac]))  11 nM
7. CCCC[C@@H]1NC(=O)[C@H](Cc2ccc(NC3=NCCN3)cc2)NC(=O)[C@H](CCCNC(=N)N)NC(=O)[C@H](Cc2ccccc2)NC(=O)[C@H]2C[C@@H](CNC(=O)[C@H](Cc3ccccc3)N(C)C(=O)[C@H](CCCC)NC(=O)[C@H](Cc3ccc(OC)cc3)NC1=O)C2 [compound 207, cyclo(F-R-Phe4Gnc2-Nle-TyrOMe-Nle-NMeF-c3amCblc)] (cyclo(FR[X60][Nle]Y(Me)[Nle][NMeF][cBu(1-CO,cis-3-CH2NH)]))  15.6 nM
8. CCCCC[C@@H]1NC(=O)[C@H](Cc2ccc(OC)cc2)NC(=O)[C@H](CC2CCC2)NC(=O)[C@H](Cc2ccc(N(C)C(=N)NC)cc2)NC(=O)[C@H](CCCNC)N(C)C(=O)[C@H](Cc2ccccc2)NC(=O)CSC[C@@](C)(C(N)=O)NC(=O)[C@H](Cc2ccc(C)nc2)N(C)C1=O [compound 395, cyclo(F-NMeOmMe-Phe4GnMeMe-cBuA-TyrOMe-Ahp-NMe3Pal4Me-aMeCl-ClAc)] ({CH2CO}-F[NMeOrn(Me)][X18][Cba]Y(Me)[Ahp(2)][NMe3Pal(6-Me)][αMeC]-NH2; thioether N-8)  16 nM
9. CCCC[C@@H]1NC(=O)[C@H](Cc2cncnc2)NC(=O)[C@H](C)N(C)C(=O)[C@H](Cc2ccccc2)OC(=O)C23CC(CNC(=O)[C@H](Cc4ccc(C)cc4)N(C)C(=O)[C@H](CCCC)NC(=O)[C@H](Cc4ccccc4F)NC1=O)(C2)C3 [compound 171, cyclo(FLac-NMeA-PyrimAla-Nle-Phe2F-Nle-NMePhe4Me-amBCP)] (cyclo([NMeA][Ala(pyrimidin-5-yl)][Nle][Phe(2-F)][Nle][NMePhe(4-Me)][X1][PhLac]))  19.1 nM
10. CCCC[C@@H]1NC(=O)[C@H](Cc2cccnc2)NC(=O)[C@H](CCCn2ccnc2)N(C)C(=O)[C@H](Cc2ccccc2)OC(=O)C23CC(CNC(=O)[C@H](Cc4ccccc4)N(C)C(=O)[C@H](CCCC)NC(=O)[C@H](Cc4ccccc4F)NC1=O)(C2)C3 [compound 233, cyclo(FLac-NMeNvalmid-3Pal-Nle-Phe2F-Nle-NMeF-amBCP)] (cyclo([3Pal][Nle][Phe(2-F)][Nle][NMeF][X1][PhLac][NMeNva(5-imidazol-1-yl)]))  28.9 nM
11. CCCC[C@@H]1NC(=O)[C@H](Cc2ccccc2F)NC(=O)[C@H](CCCF)NC(=O)[C@H](Cc2cccnc2)NC(=O)[C@H](C)N(C)C(=O)[C@H](Cc2ccccc2)OC(=O)C23CC(CNC(=O)[C@H](Cc4cccnc4)N(C)C1=O)(C2)C3 [compound 120, cyclo(FLac-NMeA-3Pal-NvaF-Phe2F-Nle-NMe3Pal-amBCP)] (cyclo([3Pal][X4][Phe(2-F)][Nle][NMe3Pal][X1][PhLac][NMeA]))  35.1 nM
12. CCCCC[C@@H]1NC(=O)[C@H](Cc2ccc(OC)cc2)NC(=O)[C@H](CCCC)NC(=O)[C@H](Cc2ccc(NC(=N)N)cc2)NC(=O)[C@H](CCCNC(=N)N)NC(=O)[C@H](Cc2ccccc2)NC(=O)CSC[C@H](C(N)=O)NC(=O)[C@H](Cc2ccccc2)N(C)C1=O [compound 350, cyclo(F-R-Phe4Gn-Nle-TyrOMe-Abp-NMeF-dCl-ClAc)] ({CH2CO}-FR[Phe(4-guanidino)][Nle]Y(Me)[Ahp(2)][NMeF][dC]-NH2; thioether N-8)  35.4 nM
13. CCCCC[C@@H]1NC(=O)[C@H](Cc2ccc(OC)cc2)NC(=O)[C@H](CC2CCC2)NC(=O)[C@H](Cc2ccc(NC(=N)N)cc2)NC(=O)CN(CCCN)C(=O)[C@H](Cc2ccccc2)NC(=O)CSC[C@@](C)(C(N)=O)NC(=O)[C@H](Cc2ccccc2)N(C)C1=O [compound 388, cyclo(F-NPrNH2G-Phe4Gn-cBuA-TyrOMe-Ahp-NMeF-aMeCl-ClAc)] ({CH2CO}-F[Gly(N(CH2)3NH2)][Phe(4-guanidino)][Cba]Y(Me)[Ahp(2)][NMeF][αMeC]-NH2; thioether N-8)  121 nM
14. CCCC[C@@H]1NC(=O)[C@H](Cc2coc(-c3ccccc3)n2)NC(=O)[C@H](C)N(C)C(=O)[C@H](Cc2ccccc2)OC(=O)C23CC(CNC(=O)[C@H](Cc4ccccc4)N(C)C(=O)[C@H](CCCC)NC(=O)[C@H](Cc4ccccc4F)NC1=O)(C2)C3 [compound 307, cyclo(FLac-NMcA-AlaOxz2Ph-Nle-Phe2F-Nle-NMeF-amBCP)] (cyclo([NMeA][X55][Nle][Phe(2-F)][Nle][NMeF][X1][PhLac]))  155 nM
15. CCCC[C@@H]1NC(=O)[C@H](Cc2ccccc2F)NC(=O)C(CC2CC(F)(F)C2)NC(=O)[C@H](Cc2cncnc2)NC(=O)[C@H](C)N(C)C(=O)[C@H](Cc2ccccc2)OC(=O)C23CC(CNC(=O)[C@H](Cc4cccnc4)N(C)C1=O)(C2)C3 (single isomer, unassigned) [compound 122, cyclo(FLac-NMeA-PyrimAla-rF2Cba-Phe2F-Nle-NMe3Pal-amBCP)]  236 nM
16. CCCC[C@@H]1NC(=O)[C@H](Cc2cccnc2)NC(=O)[C@H](CCCn2ccnc2)N(C)C(=O)[C@H](Cc2ccccc2)NC(=O)[C@@H]2C[C@H]2CNC(=O)[C@H](Cc2cccnc2)N(C)C(=O)[C@H](CCCC)NC(=O)[C@H](Cc2ccccc2F)NC1=O [compound 251, cyclo(F-NMeNvalmid-3Pal-Nle-Phe2F-Nle-NMe3Pal-tamcPr)] (cyclo(F[NMeNva(5-imidazol-1-yl)][3Pal][Nle][Phe(2-F)][Nle][NMe3Pal][X21]))  272 nM
17. CCCC[C@@H]1NC(=O)[C@H](Cc2ccncc2)NC(=O)[C@H](CCCNC(=N)N)NC(=O)[C@H](Cc2cccc3ccccc23)NC(=O)CSC[C@H](C(=O)O)NC(=O)[C@H](Cc2ccccc2)N(C)C(=O)[C@H](CCCC)NC(=O)[C@H](Cc2ccc(O)cc2)NC1=O [compound 198, cyclo(INal-R-4Pal-Nle-Y-Nle-NMeF-dC-ClAc)] ({CH2CO}-[1Nal]R[4Pal][Nle]Y[Nle][NMeF][dC]-OH; thioether N-8)  299 nM
18. CCCC[C@@H]1NC(=O)[C@H](Cc2ccc(O)cc2)NC(=O)[C@H](CC(C)C)NC(=O)[C@H](Cc2ccc(O)cc2)NC(=O)[C@H](CCCNC(=N)N)NC(=O)[C@H](Cc2ccccc2)NC(=O)CSC[C@@H](C(N)=O)NC(=O)[C@H](Cc2ccccc2)N(C)C1=O [compound 1, cyclo(F-R-Y-L-Y-Nle-NMeF-Cl-ClAc)]  912 nM
19. C[C@H](c1ccccc1)[C@H]1C(=O)NCC23CC(C2)(C3)C(=O)O[C@@H](Cc2ccccc2)C(=O)N(C)[C@@H](C)C(=O)N[C@@H](Cc2cncnc2)C(=O)N[C@@H](CC2CC2)C(=O)N[C@@H](Cc2ccccc2F)C(=O)N[C@@H](CCC(C)(C)F)C(=O)N1C [compound 341, cyclo(FLac-NMeA-PyrimAla-cPrA-Phe2F-hL3F-NMeRbMeF-amBCP)] (cyclo([Ala(cPr)][Phe(2-F)][X11][X19][X1][PhLac][NMeA][Ala(pyrimidin-5-yl)]))  1370 nM
20. CCC[C@@H]1NC(=O)[C@H](Cc2ccc(O)cc2)NC(=O)[C@H](CC(C)C)NC(=O)[C@H](Cc2ccc(O)cc2)NC(=O)[C@H](CCCNC(=N)N)N(C)C(=O)[C@H](Cc2ccccc2)NC(=O)CSC[C@H](C(N)=O)NC(=O)[C@H](Cc2ccccc2)N(C)C1=O [compound 176, cyclo(F-NMeR-Y-L-Y-Nva-NMeF-dCl-ClAc)] ({CH2CO}-F[NMeR]YLY[Nva][NMeF][dC]-NH2; thioether N-8)  2420 nM
21. CCCC[C@@H]1NC(=O)[C@H](Cc2ccc(O)cc2)NC(=O)[C@H](CCC)NC(=O)[C@H](Cc2ccc(O)cc2)NC(=O)[C@H](CCCNC(=N)N)NC(=O)[C@H](Cc2ccccc2)NC(=O)CSCCNC(=O)[C@H](Cc2ccccc2)N(C)C1=O [compound 76, cyclo(F-R-Y-Nva-Y-Nle-NMeF-Cysteamine-ClAc)] (cyclo(FRY[Nva]Y[Nle][NMeF][NHCH2CH2SCH2CO]))  5310 nM
